Tests used:
[1] = test system: leiomyoma smooth muscle cells (LSMC); experiment: Realtime PCR mRNA expression in treated LSMC; assay type: cell-based, human
Protocol: Isolation and Culture of Leiomyoma and Myometrial Smooth Muscle Cells. […] Only untreated tissues were used for isolation of LSMC and MSMC. […] LSMC and MSMC were cultured in 6-well plates at an approximate density of 10^6 cells/well in DMEM-supplemented media containing 10% FBS. After reaching visual confluence, the cells were washed in serum-free media and incubated for 24 hrs under serum-free, phenol red-free condition (Chegini, N et al. Mol Hum Reprod, 2002, 8:1071-8).
(§1) Quantitative RealTime PCR. Realtime PCR was utilized for verification of 10 differentially expressed and regulated genes identified in leiomyoma and myometrium as well as LSMC and MSMC from untreated and GnRHa-treated cohorts. The selection of these genes was based not only on their expression values (up or downregulation), but classification and biological functions important to leiomyoma growth and regression, regulation by ovarian steroids, GnRHa and TGF-β. They are IL-11, CITED2, Nur77, EGR3, TGIF, TIEG, p27, p57, GAS-1 and GPRK5 representing cytokines, transcription factors, cell cycle regulators and signal transduction.
Determination of TGF-β1 on global gene expression in LSMC and MSMC. All the materials utilized for this study including isolation of leiomyoma and myometrial cells are identical to those described in detail above. To determine the effect of TGF-β1 on global gene expression in LSMC and MSMC, the cells were cultured in 6-well plates at approximate density of 10^6 cells/well in DMEM-supplemented media containing 10% FBS. […] The cells were then treated with 2.5 ng/ml of TGF-β1 (R & D System, Minneapolis, […].) for 2, 6 and 12 hours. […] The cells were washed and then treated with TGF-β1 (2.5 ng/ml) for 2 hours. Parallel experiments using untreated cells were used as controls including an additional control for TGF-β type II receptor antisense and sense experiments.
Total cellular RNA was isolated from LSMC- and MSMC-treated and untreated controls and subjected to microarray analysis. To maintain standard and allow for comparative analysis, the GeneChips used in this study were utilized, simultaneously processed and their gene expression values were subjected to global normalization and transformation. Following these unsupervised assessments the coefficient of variation was calculated for each probe set across all the chips used in this study, and the selected gene expression values of this study were independently subjected to supervised learning including R programming analysis and ANOVA with false discovery rate selected at p<0.001 (Moustakas, A. Immunol Lett, 2002, 82:85-91; Verrecchia, F. et al. J Biol Chem, 2001, 276:17058-17062). The genes identified in these cohorts were analyzed for functional annotation and visualized using Database for Annotation, Visualization, and Integrated Discovery (DAVID) software with integrated GoCharts. Following the analysis, we selected 12 of the differentially expressed and regulated genes, including 10 identified and validated in leiomyoma and myometrium from untreated and GnRHa-treated cohorts, as well as LSMC and MSMC treated in vitro with GnRHa, for validation in response to TGF-β-time dependent action using Realtime PCR. They include IL-11, EGR3, CITED2, TIEG, TGIF, Nur77, p27, p57, GAS-1 and GPRK5. In addition, the expression of Runx1 and Runx2, transcription factors that interact with TGF-β receptor signaling pathways (Zavadil, J. et al. Proc Natl Acad Sci USA, 2001, 98:6686-6691), was validated in LSMC and MSMC as well as in leiomyoma and myometrium from GnRHa-treated and untreated cohorts. Detail description of the materials and methods for Realtime PCR as well as data analysis is provided in Chegini, N. et al. J Soc Gynecol Investig, 2003, 10:161-71.
Isolation and Culture of Leiomyoma and Myometrial Smooth Muscle Cells. Leiomyoma and myometrial smooth muscle cells (LSMC and MSMC) were isolated and cultured as previously described (Chegini, N. et al. Mol Hum Reprod, 2002, 8:1071-1078). […]

leiomyoma = experiment: Realtime PCR mRNA expression in leiomyoma, GnRHa therapy vs untreated; assay type: in vivo, human
Description: Tissues. Portions of leiomyoma and matched myometrium were collected from premenopausal women (N=6) who were scheduled to undergo hysterectomy for indications related to symptomatic leiomyomas. Three of the patients received GnRHa therapy for three months prior to surgery. […] To maintain a standard, all leiomyomas selected for this study were between 2 to 3 cm in diameter. […] The tissues were collected at the University of Florida affiliated Shands Hospital with prior approval obtained from the Institutional Review Board.
as §1
(§2) Portions of leiomyoma and matched myometrium were collected from premenopausal women (N=27) who were scheduled to undergo hysterectomy for symptomatic uterine leiomyomas at the University of Florida affiliated Shands Hospital. Of these patients seven received GnRHa therapy for a period of three months prior to surgery. […] To maintain a standard, leiomyomas used in this study were 2 to 3 cm in diameter. Prior approval was obtained from the University of Florida Institutional Review Board for the experimental protocol of this study.
as §2, with “patients,” for “patients”
Realtime PCR. Briefly, total RNA was isolated from leiomyoma and matched myometrium using Trizol Reagent (INVITROGEN, Carlsbad, Calif.) and complimentary DNA was generated from 2 μg of total RNA using Taqman reverse transcription reagent. The newly synthesized cDNA was used for PCR performed in 96-well optical reaction plates with cDNA equivalent to 100 ng RNA in a volume of 50 μl reaction containing 1× Taqman Universal Master Mix, optimized concentrations of FAM-labeled probe and specific forward and reverse primer for FMOD selected from Assay on Demand (APPLIED BIOSYSTEMS). Controls included RNA subjected to RT-PCR without reverse transcriptase and PCR with water replacing cDNA.

[2] = GnRHa 0.1 μM, 2, 6 and 12 hours
[3] = GnRHa therapy three months vs untreated

CCNC(=O)[C@@H]1CCCN1C(=O)[C@H](CCCNC(=N)N)NC(=O)[C@H](CC(C)C)NC(=O)[C@@H](CC(C)C)NC(=O)[C@H](Cc1ccc(O)cc1)NC(=O)[C@H](CO)NC(=O)[C@H](Cc1c[nH]c2ccccc12)NC(=O)[C@H](Cc1c[nH]cn1)NC(=O)[C@@H]1CCC(=O)N1 [GnRHa, leuprolide acetate]
CITED2 expression in LSMC [1, 2]: inhibiting
GPRK5 expression in LSMC [1, 2]: inhibits
CCN2 mRNA expression in LSMC ([1]; GnRHa 0.1 μM, 2, 6 and 12 hrs): inhibited
CCN3 mRNA expression in LSMC ([1]; GnRHa 0.1 μM, 2, 6 and 12 hrs): inhibited
CCN4 mRNA expression in LSMC ([1]; GnRHa 0.1 μM, 2, 6 and 12 hrs): inhibited
S100A4 mRNA expression in LSMC ([1]; GnRHa 0.1 μM, 2, 6 and 12 hrs): inhibited
fibulin-1C mRNA expression in LSMC ([1]; GnRHa 0.1 μM, 2, 6 and 12 hrs): inhibited
FMOD expression in LSMC ([1]; GnRHa 0.1 μM, 2 and 6 hrs): no significant effect
FMOD expression in LSMC ([1]; GnRHa 0.1 μM, 12 hrs): inhibited
IL-11 expression in LSMC ([1]; GnRHa 0.1 μM, within 2 to 6 hours, control levels after 12 hours): increased
Nur77 expression in LSMC ([1]; GnRHa 0.1 μM, subsequently fell below untreated levels): rapid induction
FMOD mRNA expression in leiomyoma (leiomyoma; GnRHa therapy three months (N=7) vs untreated): significantly reduced
CCN2 mRNA expression in leiomyoma (leiomyoma; [3]): alters
CCN3 mRNA expression in leiomyoma (leiomyoma; [3]): without affecting
CCN4 mRNA expression in leiomyoma (leiomyoma; [3]): without affecting
fibulin-1C mRNA expression in leiomyoma (leiomyoma; [3]): without affecting
CITED2 expression in leiomyoma (leiomyoma; GnRHa therapy vs untreated): increased
GPRK5 expression in leiomyoma (leiomyoma; GnRHa therapy vs untreated): inhibits
IL-11 expression in leiomyoma (leiomyoma; GnRHa therapy vs untreated): suppressed
Nur77 expression in leiomyoma (leiomyoma; GnRHa therapy vs untreated): significant elevation
